Where a SMILES comes first, the peptide text is derived from it. Bridges are numbered along the chain shown (N, C = ends). [ ]: non-standard residue; d: D form. R8 = C=CCCCCCC[C@@](C)(N)C(=O)O; R5 = C=CCCC[C@@](C)(N)C(=O)O; S5 = C=CCCC[C@](C)(N)C(=O)O
Legend:
[1] = Circular dichroism spectroscopy, α-helical content; type: physicochemical; settings: CD, 10 mM phosphate buffer pH 7.5, 50 μM peptide, 25°C, calculated from ellipticity at 222 nm; average of three measurements
Procedure, shortened: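 Peptides at 50 μM in 10 mM phosphate, pH 7.5, scanned 180–260 nm at 25 °C in a 0.5-mm cell, three scans averaged and buffer-subtracted. Percent helicity derived from per-residue molar ellipticity at 222 nm using a length-corrected 40,000 maximum.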

rHRSV-mCherry = settings: read-out: EC50 (half-maximal response inhibitory concentration), inhibition of RSV infection; HEp-2 cells, MOI 0.2, peptides added after 2 h infection, mCherry fluorescence at 48 h postinfection; duplicates
BALB/c mice = experiment: In vivo toxicity assessment in uninfected BALB/c mice
HEp-2 cells = experiment: HEp-2 cell viability (CellTiter-Glo luminescent cell viability assay); settings: peptide alone at 50 μM; duplicates
Procedure: (B) HEp-2 cell viability upon treatment with peptides alone at peptide concentrations of 50, 25, and 12.5 μM. Error bars are standard deviations from duplicates. Data are representative of those from two independent experiments.
Cytotoxicity assays were done with the CellTiter-Glo luminescent cell viability assay (Promega). Each experiment was performed in duplicate and repeated at least twice.

rHRSV-Luc = experiment: Mouse RSV infection model (rHRSV-Luc, bioluminescence, lung histology)
BSRT7/5 cells = experiment: Viability of BSRT7/5 cells transfected with the minigenome; settings: 25 μM peptide
Excerpt: BSRT7/5 cells were transfected with plasmids pP, pN, pM2-1, pL, and pM/Luc, together with pRSV-β-Gal for transfection standardization. […] Error bars are standard deviations from duplicates. Data are representative of those from two independent experiments.
Briefly, the dicistronic RSV minigenome pM/Luc was cotransfected into BSRT7/5 cells expressing T7 RNA polymerase, together with plasmids pN, pP, pL, and pM2-1, resulting in the replication and transcription of the minigenome.

RSV = settings: monthly injection during the peak season, at-risk infants; cited from earlier work
Excerpt: Respiratory syncytial virus (RSV) is very contagious and represents the main cause of severe acute respiratory tract illness in young children worldwide. […] A recent study performed by Pneumonia Etiology Research for Child Health ...

[2] = 2 dpi, one i.n. treatment 50 μl at 215 μM, 1 × 10^5 PFU rHRSV-Luc, n = 5
[3] = 4 dpi, i.n. treatment at day 0 and 2 dpi, n = 5, Mann-Whitney test

| Compound | % helicity [1] | EC50 (rHRSV-mCherry) | Animals with focal lesions of the pulmonary parenchyma with infiltration by neutrophils (histology) (BALB/c mice; BALB/c mice n = 5, i.n. 50 μl at 215 μM at days 0 and 2, day 4, HES staining) | Macroscopic lung examination (BALB/c mice; BALB/c mice n = 5, i.n. 50 μl at 215 μM at days 0 and 2, lungs collected at day 4) | Body weight monitoring, signs of toxicity (BALB/c mice; BALB/c mice n = 5, i.n. 50 μl at 215 μM in PBS at days 0 and 2, days 0 to 4) | Toxicity for uninfected HEp-2 cells (cell viability) (HEp-2 cells) | Reduction in the level of RSV replication in the noses versus untreated mice (rHRSV-Luc; [2]) | Whole luminescence signal versus untreated infected mice (rHRSV-Luc; [2]) | Intensity of interstitial pneumonia (lung histology) (rHRSV-Luc; 4 dpi, HES staining, versus RSV-infected PBS mice) | Animals with vascular and bronchial lesions (lung histology) (rHRSV-Luc; 4 dpi, HES staining, all 5 untreated infected animals showed lesions) | Amount of bioluminescence versus untreated control group (rHRSV-Luc; [3]) | Bioluminescence in the lungs versus untreated RSV-infected mice (rHRSV-Luc; [3]) | Body weight of RSV-infected treated animals (rHRSV-Luc; daily monitoring, i.n. treatment at day 0 and 2 dpi, n = 5) | Cell mortality of minigenome-transfected BSRT7/5 cells (BSRT7/5 cells) | Efficacy of prophylactic treatment (RSV) |
| --- | --- | --- | --- | --- | --- | --- | --- | --- | --- | --- | --- | --- | --- | --- | --- |
| CC[C@H](C)[C@H](NC(=O)[C@]1(C)CCCC=CCCCCCC[C@@](C)(NC(=O)[C@H](CCC(=O)O)NC(=O)[C@H](CC(N)=O)NC(=O)[C@H](C)NC(=O)[C@]2(C)CCCC=CCCC[C@@](C)(NC(=O)[C@H](Cc3ccccc3)NC(=O)[C@H](CCC(=O)O)NC(C)=O)C(=O)NCC(=O)N[C@@H](CCC(=O)O)C(=O)N2)C(=O)N[C@@H](C)C(=O)N[C@@H]([C@@H](C)O)C(=O)N[C@@H](CCCCN)C(=O)N[C@@H](Cc2ccccc2)C(=O)N[C@@H](CC(C)C)C(=O)N[C@@H](CCC(=O)O)C(=O)N1)C(=O)N[C@@H](CCCCN)C(=O)N[C@@H](CCCCN)C(=O)N[C@@H](CCCCN)C(=O)N[C@@H](Cc1ccccc1)C(=O)N[C@@H](C)C(=O)N[C@@H](CO)C(N)=O [5a] (Ac-EF[R5]GE[S5]ANE[R8]ATKFLE[S5]IKKKFAS-NH2; staple 3-6, 10-17) | >100% | 18.4 ± 9.3 µM | 3 of the 5 | no macroscopic sign of toxicity | did not reveal any signs of toxicity | no toxicity | 2 fold | no significant difference | decreased | 2 out of 5 | significant reduction | significantly reduced | statistically nonsignificant loss of weight |  |  |
| CC[C@H](C)[C@H](NC(=O)[C@]1(C)CCCC=CCCCCCC[C@@](C)(NC(=O)[C@H](CCC(=O)O)NC(=O)[C@H](CC(N)=O)NC(=O)[C@H](C)NC(=O)[C@]2(C)CCCC=CCCC[C@@](C)(NC(=O)[C@H](Cc3ccccc3)NC(=O)[C@H](CCC(=O)O)NC(C)=O)C(=O)NCC(=O)N[C@@H](CCCCN)C(=O)N2)C(=O)N[C@@H](C)C(=O)N[C@@H]([C@@H](C)O)C(=O)N[C@@H](CCCCN)C(=O)N[C@@H](Cc2ccccc2)C(=O)N[C@@H](CC(C)C)C(=O)N[C@@H](CCC(=O)O)C(=O)N1)C(=O)N[C@@H](CCCCN)C(=O)NCC(=O)N[C@@H](CCCCN)C(=O)N[C@@H](Cc1ccccc1)C(=O)N[C@@H](C)C(=O)N[C@@H](CO)C(N)=O [5d] (Ac-EF[R5]GK[S5]ANE[R8]ATKFLE[S5]IKGKFAS-NH2; staple 3-6, 10-17) | 75.7% | 6 ± 4.2 µM |  |  |  | some toxicity |  |  |  |  |  |  |  | 40% |  |
| palivizumab: monoclonal antibody administered monthly as an injectable for RSV prophylaxis |  |  |  |  |  |  |  |  |  |  |  |  |  |  | approximately 50% |

— paper PMC7508628, “Targeting the Respiratory Syncytial Virus N^0-P Complex with Constrained α-Helical Peptides in Cells and Mice” (Antimicrobial Agents and Chemotherapy, 2020)
